According to patent US4499081A, “Peptide compounds” (Nyegaard & Co A/S, priority 1982, dated 1985):
Square brackets hold non-standard residues; d marks the D form. Peptide text beside a SMILES is read from it. pGlu = O=C1CC[C@@H](C(=O)O)N1

Key:
myelopoietic system = test: injection of peptide into mice, effect on hemopoiesis; format: in vivo
granulopoiesis = test: activity as granulopoiesis inhibition factor
Source text: Due to the minute amounts of the natural granulopoiesis factor available, the structure of the natural substance has not been determined. It has never been obtained in crystalline or completely pure form and it is not known whether this could be achieved using material from natural sources only. In contrast, the peptides of the invention can be obtained in crystalline form suitable for pharmaceutical use and in relatively large quantities, free from contaminating peptides and proteins of natural origin.

[1] = injected into mice at a relatively low dose level
[2] = mice, injections at 10^-5 M for six successive days

**Q.** Which results are given for NCCCC[C@H](NC(=O)[C@H](CS)NC(=O)[C@H](CC(=O)O)NC(=O)[C@H](CCC(=O)O)NC(=O)[C@@H]1CCC(=O)N1)C(=O)O [Compound (1), L-pyroGlutamyl-L-glutamyl-L-aspartyl-L-cysteinyl-L-lysine] ([pGlu]EDCK-OH)?
**A.** production of myelopoietic cells after treatment (myelopoietic system; after treatment with the peptide, inhibitory effect reversible, normal cell population overshoots temporarily): temporarily abnormally increased; effect on other cell lineages deriving from the pluripotent stem cells (myelopoietic system; [1]): not affected; effect on the myelopoietic system (morphologically recognisable cells and committed stem cells) (myelopoietic system; [1]): selective inhibition of the myelopoietic system; effect on the whole hemopoietic system, including production of lymphocytes (myelopoietic system; mice, 10^-5 M for three weeks): strong stimulation; peripheral granulocytes (myelopoietic system; mice, concentration of 10^-7 M in the extracellular fluid, greatest in the mature cells): marked decrease; pluripotent stem cells and production of erythrocytes (myelopoietic system; [2]): reduced; population of committed stem cells (myelopoietic system; [2]): strong reduction

**Q.** For NCCCC[C@H](NC(=O)[C@H](CS)NC(=O)[C@H](CC(=O)O)NC(=O)[C@H](CC(=O)O)NC(=O)[C@@H]1CCC(=O)N1)C(=O)O [pyroGlu-Asp-Asp-Cys-LysOH] ([pGlu]DDCK-OH), which granulopoiesis inhibition activity (granulopoiesis) is on record?
**A.** inactive
